From paper PMC8841438 (Clinical and Translational Science, 2021)
Entries after “also recorded” stand apart in the source; their conditions may differ. Where two headings read alike, the source gives them in different places.

Experiments:
CES1 = settings: human hepatocytes; cited from earlier work
Safety assessments = assay type: in vivo, human; settings: for subjects with AEs: all grade 1
CES2 = settings: human hepatocytes; cited from earlier work
[1] = cited from earlier work
JAK1 = settings: cited from earlier work
[2] = molecular target: T1, organic cation transporter 2 (OCT2) (Homo sapiens, UniProt O15244); experiment: In vitro transporter inhibition: OCT2; assay type: in vitro ADME; settings: data on file at Gilead Sciences, Inc.
T1 sequence (O15244 1-555): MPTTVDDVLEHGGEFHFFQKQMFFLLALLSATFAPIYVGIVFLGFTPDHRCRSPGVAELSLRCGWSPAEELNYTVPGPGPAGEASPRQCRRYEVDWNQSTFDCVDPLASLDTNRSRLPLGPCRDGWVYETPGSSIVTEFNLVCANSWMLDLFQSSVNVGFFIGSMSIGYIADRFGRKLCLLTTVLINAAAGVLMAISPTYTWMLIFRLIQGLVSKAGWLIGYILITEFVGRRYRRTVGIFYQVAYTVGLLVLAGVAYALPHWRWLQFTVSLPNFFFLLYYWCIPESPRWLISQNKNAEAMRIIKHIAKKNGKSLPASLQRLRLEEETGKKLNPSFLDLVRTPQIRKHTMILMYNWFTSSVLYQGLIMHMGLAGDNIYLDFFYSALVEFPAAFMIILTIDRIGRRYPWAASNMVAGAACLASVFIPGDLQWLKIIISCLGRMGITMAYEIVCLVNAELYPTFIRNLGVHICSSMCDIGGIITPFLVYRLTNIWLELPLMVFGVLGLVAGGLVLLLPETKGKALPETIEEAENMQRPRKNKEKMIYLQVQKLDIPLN

[3] = filgotinib: unchanged; cited from earlier work
[4] = assay type: in vivo, human; settings: study 1
[5] = assay type: in vivo, human; settings: study 2
bile salt export pump = settings: in vitro; at clinically relevant concentrations; cited from earlier work
[6] = test system: organic anion transporter 1; settings: in vitro; at clinically relevant concentrations; cited from earlier work
[7] = test system: organic anion transporter 4; settings: in vitro; at clinically relevant concentrations; cited from earlier work
[8] = test system: breast cancer resistance protein; settings: in vitro; at clinically relevant concentrations; cited from earlier work
[9] = test system: organic anion transporter 3; settings: in vitro; at clinically relevant concentrations; cited from earlier work
MATE2K = MATE2K (Homo sapiens, UniProt Q86VL8); experiment: In vitro transporter inhibition: MATE2K; assay type: in vitro ADME; settings: data on file at Gilead Sciences, Inc.
P‐glycoprotein = settings: in vitro; cited from earlier work
P‐gp = settings: in vitro; at clinically relevant concentrations; cited from earlier work
[10] = test system: organic cation transporter 1; settings: in vitro; at clinically relevant concentrations; cited from earlier work
[11] = Study 3: metformin pharmacokinetics alone or with filgotinib in healthy subjects; settings: human, plasma, oral, 850 mg
[12] = available data; cited from earlier work
[13] = patients with rheumatoid arthritis
[14] = filgotinib + itraconazole vs filgotinib alone
[15] = single filgotinib 100 mg alone, fasting, median (Q1, Q3), N = 13
[16] = single filgotinib 100 mg alone, fasting, plasma, mean (%CV), N = 13
[17] = filgotinib 200 mg after multiple doses of rifampin 600 mg vs alone
[18] = filgotinib + rifampin vs filgotinib alone
[19] = single filgotinib 200 mg alone, fasting, plasma, mean (%CV), N = 14
[20] = single filgotinib 200 mg alone, median (Q1, Q3), N = 14

MATE2K, sequence (Q86VL8 1-566 isoform Q86VL8-3): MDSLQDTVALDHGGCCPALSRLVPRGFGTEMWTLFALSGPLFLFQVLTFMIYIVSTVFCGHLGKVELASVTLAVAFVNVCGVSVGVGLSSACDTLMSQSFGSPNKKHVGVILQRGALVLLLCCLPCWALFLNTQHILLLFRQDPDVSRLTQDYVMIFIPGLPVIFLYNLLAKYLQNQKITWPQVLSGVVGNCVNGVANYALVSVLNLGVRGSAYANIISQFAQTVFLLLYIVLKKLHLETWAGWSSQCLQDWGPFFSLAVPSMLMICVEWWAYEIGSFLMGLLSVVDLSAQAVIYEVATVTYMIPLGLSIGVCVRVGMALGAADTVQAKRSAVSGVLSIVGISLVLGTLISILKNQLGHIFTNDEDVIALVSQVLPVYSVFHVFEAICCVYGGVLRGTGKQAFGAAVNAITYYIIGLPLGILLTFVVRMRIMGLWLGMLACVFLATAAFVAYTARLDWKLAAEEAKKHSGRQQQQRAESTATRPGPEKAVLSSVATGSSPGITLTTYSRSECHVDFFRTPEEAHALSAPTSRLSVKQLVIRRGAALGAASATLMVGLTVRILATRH

CO[C@H]1/C=C/O[C@@]2(C)Oc3c(C)c(O)c4c(O)c(c(/C=N/N5CCN(C)CC5)c(O)c4c3C2=O)NC(=O)/C(C)=C\C=C\[C@H](C)[C@H](O)[C@@H](C)[C@@H](O)[C@@H](C)[C@H](OC(C)=O)[C@@H]1C [rifampin, reference compound]
induction of CES1 (CES1): moderate induction | subjects with AEs considered to be related to study drug (nausea) (Safety assessments; study 2): 7.1% | subjects with grade 3 laboratory abnormality (occult blood in urine) (Safety assessments; study 2): 14% | subjects with AEs (Safety assessments; study 2, by treatment period): 14% | subjects with at least one graded laboratory abnormality (Safety assessments; study 2, by treatment period, majority grade 1 or 2): 93% | induction of CES2 (CES2): moderate induction

Nc1nc2cccc(-c3ccc(CN4CCS(=O)(=O)CC4)cc3)n2n1 [GS‐829845]
accumulation following multiple doses [1]: approximately twofold accumulation | time to steady‐state concentrations [1]: ~4 days | JAK1 potency relative to filgotinib (JAK1): ~ 1/10 | inhibition of OCT2 (in words) ([2]; in vitro data): may inhibit | ratio of maximum unbound plasma concentration over in vitro IC50 against OCT2 [2, 13]: 0.5 | orally administered dose recovered in feces as the named species [3]: ~ 9% | orally administered dose recovered in urine as the named species [3]: ~ 54% | AUCinf %GLSM ratio (90% CI) [4, 14]: 107 (104,110) % | AUClast %GLSM ratio (90% CI) [4, 14]: 106 (103,109) % | effect of itraconazole on pharmacokinetic parameters (in words) ([4]; filgotinib: Tmax, t1/2, GS‐829845: C max, AUCinf, T max, t 1/2): no effect; also recorded: similar; also recorded: did not affect | T max [4, 15]: 4.00 (4.00, 4.00) h | t1/2 [4, 15]: 17.0 (14.0,19.5) h | AUCinf [4, 16]: 31,200 (18.4) ng*h/ml | AUClast [4, 16]: 30,800 (18.0) ng*h/ml | C max [4, 16]: 1160 (24.8) ng/ml | reduction in AUCinf by rifampin [5, 17]: 38% | reduction in C max by rifampin [5, 17]: 19% | AUCinf %GLSM ratio (90% CI) [5, 18]: 61.9 (57.9, 66.1) % | AUClast %GLSM ratio (90% CI) [5, 18]: 62.3 (58.4, 66.4) % | C max %GLSM ratio (90% CI) [5, 18]: 81.0 (76.8, 85.4) % | effect of rifampin on T max and t 1/2 (in words) ([5]; filgotinib: T max and t 1/2, GS‐829845: Tmax): similar | AUCinf [5, 19]: 77,400 (25.3) ng*h/ml | AUClast [5, 19]: 76,700 (24.8) ng*h/ml | C max [5, 19]: 2900 (15.1) ng/ml | Tmax [5, 20]: 4.00 (3.00, 4.00) h | t1/2 [5, 20]: 15.9 (14.8, 18.9) h | inhibition of bile salt export pump (bile salt export pump): not inhibitors | inhibition of organic anion transporter 1 [6]: not inhibitors | inhibition of organic anion transporter 4 [7]: not inhibitors | inhibition of breast cancer resistance protein [8]: not inhibitors | inhibition of organic anion transporter 3 [9]: not inhibitors | inhibition of MATE2K (in words) (MATE2K; in vitro data): may inhibit | ratio of maximum unbound plasma concentration over in vitro IC50 against MATE2K (MATE2K; [13]): 0.69 | substrate of P‐glycoprotein (P‐glycoprotein): substrates | inhibition of P‐gp (P‐gp): not inhibitors | inhibition of organic cation transporter 1 [10]: not inhibitors

CN(C)C(=N)N=C(N)N [Metformin, metformin]
AUC(0-inf) [11]: 8720 ng·h/mL | AUC(0-t) [11]: 8640 ng·h/mL | maximal increase of metformin exposure via OCT2, MATE1, and MATE2K inhibition [12]: ~ 2.6 fold | subjects with AEs (Safety assessments; study 3, by treatment period): 25% | AE considered related to study drug (kind of AE) (Safety assessments; study 3, one subject, by treatment phase): nausea + vomiting
